Measurements published in PMC5326799, “Discovery of Compounds that Positively Modulate the High Affinity Choline Transporter” (Frontiers in Molecular Neuroscience, 2017).
“Also recorded” adds a separate entry of the source. Like-named read-outs stand apart in the source and are kept apart here.

Experiments:
[1] = target: T1, high affinity choline transporter (CHT) (Homo sapiens, UniProt Q9GZV3); assay: Radiometric [3H]Choline uptake assay (scintillation proximity) in HEK cells expressing CHT; assay type: cell-based; settings: for CHT modulator classification in radiometric assay: single point 1 and 10 μM, actives in 10-point dose response; for 3H-choline uptake % effect 1 μM: 1 μM compound; for 3H-choline uptake % effect 1 μM / 3H-choline uptake % effect 10 μM: 100% = 10 μM Staurosporine, 0% = DMSO; for 3H-choline uptake % effect 10 μM: 10 μM compound
T1 construct: expressed in transfected cells; host or cells: HEK-293, lentiviral transduction, single-cell clone CHT-WT4
T1 sequence (Q9GZV3 1-580): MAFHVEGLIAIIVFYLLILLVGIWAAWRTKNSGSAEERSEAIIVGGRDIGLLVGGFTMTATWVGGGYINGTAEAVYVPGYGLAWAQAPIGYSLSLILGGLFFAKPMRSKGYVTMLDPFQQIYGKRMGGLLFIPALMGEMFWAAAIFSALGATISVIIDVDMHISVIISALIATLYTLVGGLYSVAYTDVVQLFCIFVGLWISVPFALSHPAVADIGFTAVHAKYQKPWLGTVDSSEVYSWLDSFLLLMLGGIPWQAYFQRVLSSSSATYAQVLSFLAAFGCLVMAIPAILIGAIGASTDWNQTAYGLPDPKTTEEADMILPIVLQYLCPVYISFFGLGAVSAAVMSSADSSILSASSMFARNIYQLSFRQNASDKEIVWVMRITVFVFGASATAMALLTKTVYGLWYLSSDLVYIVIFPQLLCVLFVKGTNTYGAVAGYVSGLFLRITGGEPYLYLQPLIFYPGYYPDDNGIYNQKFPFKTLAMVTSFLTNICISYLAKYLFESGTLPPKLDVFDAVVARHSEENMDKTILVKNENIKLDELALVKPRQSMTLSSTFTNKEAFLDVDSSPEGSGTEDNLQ
Description: Uptake of [^3H]Choline (American Radiochemicals; ART 0197; 1,000 Ci/vial; Specific Activity 60–90 Ci/mmol) was measured in HEK cells expressing the high affinity choline transporter (CHT), clone WT4. Cells were plated at 50,000 cells /well in 200 μL culture media on a PDL coated Cytostar-T 96 well plate (Perkin Elmer) 24 h prior to assay. On the day of assay, following two washes and a 30 min pre-incubation at 37°C in 50 μL Na(−) free buffer (0.54 mM KCl, 1.3 mM CaCl2, 0.53 mM MgCl2, 0.4 mM MgSO4, 0.37 mM KH2PO4, 240 mM Sucrose, 4.4 mM Tris-phosphate, 5.5 mM Glycine, 5.6 mM D-Glucose; pH 6.5 with KOH), 25 μL 4X control or test compounds in Na(−) buffer were added to the cells. […] Final DMSO concentration was 0.25%. Following a 30 min incubation at 37°C, 25 μL [^3H]Choline diluted to 320 nM (80 nM final concentration) was added in Na(+) buffer (0.54 mM KCl, 1.3 mM CaCl2, 0.53 mM MgCl2, 0.4 mM MgSO4, 0.37 mM KH2PO4, 138 mM NaCl, 0.28 mM Na2HPO4, 5.5 mM Glycine, 5.6 mM D-Glucose; pH 6.5 with KOH). Plates were sealed with TopSeals (Perkin Elmer) and incubated in darkness for 3 h at room temperature before reading using a Wallac Microbeta, 1 min/well.
(§1) A preponderance of literature precedent for measuring high affinity choline uptake (HACU) utilizes a radiometric assay to measure [^3H]Choline transport in preparations. […] A number of parameters were assessed in assay development including cell seeding density, time of assay post-seeding, plate coating, buffer composition, read time and choline concentration.

SK-N-FI cell line = assay: [3H]Choline uptake in untransformed SK-N-FI cell line; assay type: cell-based; settings: 1 μM HC-3, 10 μM STS
Excerpt: (§2) Supplementary file Image1.JPEG: Supplementary Figure 1 [^3H] […] Click here for additional data file.

SH-SY5Y cell line = assay: [3H]Choline uptake in untransformed SH-SY5Y cell line; assay type: cell-based; settings: 1 μM HC-3, 10 μM STS
Excerpt: as §2

[2] = target: T1, high affinity choline transporter (CHT); assay: Radiometric [3H]Choline uptake assay (scintillation proximity) in HEK cells expressing CHT; assay type: cell-based; settings: HEK293, read-out: % inhibition of [3H]Choline uptake by HC-3, 1 μM
[3] = target: high affinity choline transporter (CHT); set-up: method as in earlier work; settings: ref Okuda and Haga, 2000, Okuda et al., cited from earlier work
CHT [4] = target: T2, CHT (Homo sapiens, UniProt Q9GZV3); assay: cell-based
T2 sequence (Q9GZV3 1-580): T1 sequence (Q9GZV3 1-580)

CHT [5] = target: T2, CHT; assay: SURFE2R solid supported membrane (SSM) electrophysiology on CHT-WT4 membrane fragments; assay type: biochemical; set-up: expressed in transfected cells; host or cells: HEK-293, lentiviral transduction, single-cell clone CHT-WT4
Description: A single cell clone of HEK293 overexpressing CHT (CHT-WT4) cells was used to generate membrane fragments to assess on the SURFE^2R platform. Cells were grown to 80% confluence and harvested. The membrane fraction was collected by ultracentrifugation and the plasma membranes were isolated by density gradient centrifugation (Schulz et al., [2008]).
All experiments were performed on the SURFE^2R N1 device and the matching N1 sensor blanks (Nanion Technologies GmbH, Munich). The sensor blanks include a 3 mm diameter gold surface inside a small well coated by incubating 50 μL of 0.5 mM 1-octadecanethiol dissolved in isopropanol for 30 min, rinsed once with isopropanol and twice with water (ddH2O) and dried for 30 min at room temperature.
7.5 μg/μL DPhPC (Avanti Polar Lipids) was dissolved in n-Decane. 1.5 μL were added onto the thiol-coated gold surface. Immediately, 80 μL of potassium buffer was added carefully. The CHT membrane preparation was diluted 1:10 with potassium buffer and sonicated. Eight microliter were added directly onto the SSM by submerging the pipette into the buffer and the sensors were centrifuged for 30 min at 2,200 × g. The quality of the SSM was controlled by determination of conductance σ and capacitance C. The SURFE^2R N1 device includes default functions to perform these measurements. Sensors should have a conductance below 3 nS and capacitance below 20 nF.
Prepared sensors were inserted into the faraday cage of the SURFE^2R N1 device and buffers applied via its automatic perfusion system, allowing rapid buffer exchange in a continuous liquid flow. The following buffer addition sequence was used for all experiments: Sodium buffer was applied for 2 s with a flow rate of 200 μl/s to establish a sodium gradient over the membrane. […] During those 6 s the current response was recorded. […]
Raw data were exported as ASCII files, analysis was performed using the scientific graphing and data analysis program IGOR Pro 6 (WaveMetrics, Portland, USA). The evaluated peak currents were determined using a peak detection algorithm. […]

CHT [6] = target: T2, CHT; assay: Live cell anti-FLAG immunolabeling of CHT cell surface localization in CHT-WT4 cells; assay type: cell-based; set-up: expressed in transfected cells; host or cells: HEK-293, lentiviral transduction, single-cell clone CHT-WT4; settings: 1 or 10 μM for 1 h, qualitative observations
Description: Media was removed and cells were washed once with HBSS (+/+). 1 μg/mL Anti-FLAG antibody (F3165, Sigma) was diluted in HBSS (+/+) and added to the cellular monolayer for 30 mins. After incubation, cells were washed three times with HBSS (+/+) followed by incubation with 1:5,000 AF488 labeled secondary antibody (LifeTech) diluted in HBSS (+/+) for 30 min. After three washes, cells were fixed with 4% paraformaldehyde in HBSS (+/+) for 15 min. Nuclei were counterstained with the nuclear dye Hoechst. All images were captured and analyzed on an epifluorescent microsope or Cellomics platform.
Thus, understanding compound effects on CHT density and activation state in the synaptic membrane may aid interpretation of the effects on cholinergic neurotransmission. Conventional methods such as cell surface biotinylation present challenges in terms of the requirement of large quantities of cells and low throughput. […] Our CHT overexpression construct contains a FLAG tag on the N-terminus which we sought to utilize with antibody detection in non-permeabilized cells. […] We proceeded to investigate the effect of compound treatment in more detail. Cells were incubated with compounds at 1 or 10 μM for 1 h before immunolabeling and visualization.

CHT [7] = target: T2, CHT; settings: for D9-choline uptake % effect 1 μM: 1 μM compound; for D9-choline uptake % effect 1 μM / D9-choline uptake % effect 10 μM: HEK293 CHT-WT4, DMSO negative control, 10 μM STS positive control; for D9-choline uptake % effect 10 μM: 10 μM compound
SH-SY5Y cells = assay: Radiometric CHT transport in SH-SY5Y cell backgrounds; assay type: cell-based; settings: potentiation could not be demonstrated
Description: as §1

[8] = inhibitor/NAM compounds, 10-point dose response, HEK293 CHT-WT4, read-out: 3H-choline uptake IC50 or EC50
[9] = 3H-choline uptake IC50 or EC50(M), PAM compounds, 10-point dose response, HEK293 CHT-WT4, n.d. = not detected
[10] = EC50 estimate, [3H]Choline uptake (positive modulators), CHT-WT4 cells, 10-point dose response
[11] = PAM compounds, 10-point dose response, HEK293 CHT-WT4, n.d. = not detected, read-out: 3H-choline uptake IC50 or EC50

C[N+]1(C)CCOC(O)(c2ccc(-c3ccc(C4(O)C[N+](C)(C)CCO4)cc3)cc2)C1 (centres unmarked) [HC-3, hemicholinium-3, reference compound]
IC50 [1]: 116 nM | inhibition at 1 µM ([1]; HEK293, read-out: % inhibition of [3H]Choline uptake by HC-3, 1 μM, CHT-WT4 clone): ~80% | Effect on [3H]Choline uptake (SK-N-FI cell line): No effect | Effect on [3H]Choline uptake (SH-SY5Y cell line): No effect | inhibition at 1 µM ([2]; CHT-WT5 clone): ~61% | inhibition at 1 µM ([2]; CHT-WT Pool): ~69% | Ki ([3]; Apparsundaram et al., 2001, read-out: Ki, inhibition of choline uptake): 1 to 5 nM | IC50 (CHT [4]): 5.6 nM | IC50 (CHT [5]): 20.4 nM | Effect on cell surface localization of CHT (CHT [6]): increase in cell surface localization; also recorded: increase transporter density on the cell surface

COc1ccc(C(=O)NCc2cc(C(C)C)no2)cc1OC1CCN(C)CC1 [ML-352, reference compound]
D9-choline uptake % effect 1 μM (CHT [7]): 96.3% | D9-choline uptake % effect 10 μM (CHT [7]): 104.1% | Effect on cell surface localization of CHT (CHT [6]): increase in cell surface localization; also recorded: increase transporter density on the cell surface

O=C(NCc1ccc(Cl)cc1)c1ccc2snc(N3CCNCC3)c2c1 [Compound 4]
IC50 [1, 8]: 1540 nM | CHT modulator classification in radiometric assay [1]: negative allosteric modulators | D9-choline uptake % effect 1 μM (CHT [7]): 12.3% | D9-choline uptake % effect 10 μM (CHT [7]): 118.1% | IC50 (CHT [4]): 3130 nM

NC(=O)N1C(=O)C(C(=O)Cc2ccccc2)c2cc(F)ccc21 (centres unmarked) [Compound 3]
EC50 [1, 9]: 4.51e-06 M | EC50 [1, 10]: 4.5e-06 M | CHT modulator classification in radiometric assay [1]: positive allosteric CHT modulators

CN[C@@H]1C[C@H]2O[C@@](C)([C@@H]1OC)n1c3ccccc3c3c4c(c5c6ccccc6n2c5c31)C(=O)NC4 [STS, staurosporine]
EC50 [1, 9]: 1.7e-06 M | Effect on [3H]Choline uptake (SK-N-FI cell line): No effect | Effect on [3H]Choline uptake (SH-SY5Y cell line): No effect | Potentiation of CHT transport in SH-SY5Y cell backgrounds (SH-SY5Y cells): toxicity | EC50 (CHT [4]): 507 nM

CNC(=O)C1CCCN1c1nc(Cc2ccccc2F)cc(Nc2cc(C3CC3)[nH]n2)n1 (centres unmarked) [Compound 6]
3H-choline uptake % effect 1 μM ([1]; HEK293 CHT-WT4): 3.6% | 3H-choline uptake % effect 10 μM ([1]; HEK293 CHT-WT4): 23.6% | D9-choline uptake % effect 1 μM (CHT [7]): 60.8% | D9-choline uptake % effect 10 μM (CHT [7]): 91.6% | EC50 (CHT [4]): 2050 nM | Effect on cell surface localization of CHT (CHT [6]): no effects; also recorded: no apparent effect

C[N+](C)(C)CCO [choline, Choline Chloride]
Km ([3]; Apparsundaram et al., 2001, read-out: Km, high-affinity sodium-dependent choline uptake): ~2 µM | EC50 (CHT [5]): 25000 nM

Cc1oc2nc3c(c(NC(=O)CN4CCCC4=O)c2c1C)CCCC3 [MKC-231, coluracetam, reference compound]
Impact on CHT mediated transport, [3H]Choline uptake ([1]; CHT-WT4 cells, 10-point dose response): unable to see any impact | Impact on CHT mediated transport, [3H]Choline uptake ([1]; CHT-WT4 cells, 10-point dose response, listed as MKC231): no apparent effect | Effect on D9-choline uptake (CHT [7]; 10-point dose response): no apparent effect | Effect on CHT current (SURFE2R) (CHT [5]; CHT-WT4 membrane preparations): not able to detect any effect | Effect on cell surface localization of CHT (CHT [6]): no apparent effect

O=C(CC1=CCCCC1)Nc1ccnc2ccccc12 [Compound 1]
EC50 [1, 10]: 3e-07 M | EC50 [1, 11]: 2.75e-07 M | CHT modulator classification in radiometric assay [1]: positive allosteric CHT modulators

N#Cc1c[nH]c2ncnc(N3CCC4(CC3)CNCc3ccc(C(F)(F)F)nc34)c12 [Compound 8]
3H-choline uptake % effect 1 μM ([1]; HEK293 CHT-WT4): 9.0% | 3H-choline uptake % effect 10 μM ([1]; HEK293 CHT-WT4): 52.6% | D9-choline uptake % effect 1 μM (CHT [7]): 24.5% | D9-choline uptake % effect 10 μM (CHT [7]): 80.2% | EC50 (CHT [4]): 5100 nM | Effect on cell surface localization of CHT (CHT [6]): increased cell surface localization; also recorded: distinct increase in apparent cell surface localization

O=C(NCc1ccc(Cl)cc1)c1cn2c(N3CCNCC3)nccc2n1 [Compound 5]
IC50 [1, 8]: 670 nM | CHT modulator classification in radiometric assay [1]: negative allosteric modulators

Cn1ncc2nc(-c3ccnc(N)c3)nc(N3CCNCC3(C)C)c21 [Compound 9]
3H-choline uptake % effect 1 μM ([1]; HEK293 CHT-WT4): 24.4% | 3H-choline uptake % effect 10 μM ([1]; HEK293 CHT-WT4): 100.0% | D9-choline uptake % effect 1 μM (CHT [7]): 30.5% | D9-choline uptake % effect 10 μM (CHT [7]): 64.0% | EC50 (CHT [4]): 5760 nM | Effect on cell surface localization of CHT (CHT [6]): increased cell surface localization; also recorded: distinct increase in apparent cell surface localization

O=C(Cn1c(=O)oc2ccccc21)Nc1ccnc2ccccc12 [Compound 2]
EC50 [1, 10]: 4e-07 M | EC50 [1, 11]: 4.16e-07 M | CHT modulator classification in radiometric assay [1]: positive allosteric CHT modulators

CNC(=O)C1CCC(Nc2nc(Nc3ccc(S(C)(=O)=O)cc3)ncc2C(F)(F)F)C1 (centres unmarked) [Compound 7]
3H-choline uptake % effect 1 μM ([1]; HEK293 CHT-WT4): −2.4% | 3H-choline uptake % effect 10 μM ([1]; HEK293 CHT-WT4): 26.7% | D9-choline uptake % effect 1 μM (CHT [7]): 46.4% | D9-choline uptake % effect 10 μM (CHT [7]): 80.8% | EC50 (CHT [4]): 2490 nM | Effect on cell surface localization of CHT (CHT [6]): no effects; also recorded: no apparent effect
